One may read the melting point as the temperature, or range, at which the solid turns liquid.

Where two headings read alike, the source gives them in different places.

One series relates to U266B1. The series can be described thus: Cell strain inhibition activity (Promega single solution cell proliferation test kit), U266. The class given is cell-based. The following applies: Homo sapiens, U-266; U266B1 cells, 24 h incubation with drug; read-out: IC50 concentration (nM) of the drugs to cytotoxicity, U266B1. How it is done: (§1) The test solution used in the present invention is a single solution cell proliferation test kit from Promega company; and the cells used are U266 and RPMI8226. The experimental system is 110 μL, containing 90 μL of cell suspension, 10 μL of test solution, and 10 μL of drug (inhibitor). The final concentration is 4.54×10^−8 M-1.77×10^−9 M, the last concentration is 0 M, the actual preparation concentration is 5×10^−7 M-1.95×10^−8 M, and the last concentration is 0 M. The specific experiment process is as follows:
(§2) After the cells are counted separately, dilution and preparation are performed so that the number of U266 is 1×10^4 cells/well, and the number of RPMI8226 is 1×10^4 cells/well.
(§3) 90 μL of cell suspension is added to each well of a 96-well fluorescence microplate, and incubated for 24 h. […] After the reaction is complete, 10 μL of test solution is added to each well and incubation is performed for 2-3 h. The absorbance is tested with a 490 nm fluorescence microplate reader (BMG LABTECH POLARstar OPTIMA Microplate Reader).
(§4) The absorbances of the products obtained under the action of the drugs of different concentrations after subtracting the substrate are calculated. The IC50 concentration (nM) of the drugs to cytotoxicity is calculated by the GraphPad Prism software.

For series [1], the target named is T1, human red blood cell 20S proteasome (Homo sapiens, UniProt P28074).
T1 construct: human red blood cell 20S proteasome; purchased Enzo; host or cells: purified from human red blood cells
The series can be described thus: Proteasome inhibition activity (chymotrypsin-like activity, Suc-LLVY-AMC fluorescent substrate). The following applies: Suc-LLVY-AMC 50 μM, 37° C. In kind it is biochemical.
Description: The present invention uses a fluorescent polypeptide substrate Suc-Leu-Leu-Val-Tyr-AMC (abbreviated as Suc-LLVY-AMC, Suc stands for succinyl group, AMC stands for 7-amide-4-methylcoumarin) to determine the chymotrypsin-like enzyme activity of the proteasome.
The proteasome used in the present invention is human red blood cell 20S proteasome, and the enzymes, fluorescent substrates and test buffers are all purchased from Enzo company. […]
The 20S proteasome is diluted with a buffer solution to a concentration of 2 ng/μL from 8 ng/μL, and the diluted proteasome solution is added to a 384-well fluorescence microplate, 4 μL each. […] A 360 nm/460 nm fluorescence microplate reader (BMG LABTECH POLARstar OPTIMA Microplate Reader) is used to test the fluorescence value.
The fluorescence values of the products obtained under the action of the drugs of different concentrations after subtracting the substrate are calculated. The IC50 concentration of the drug to inhibit the proteasome is calculated by the GraphPad Prism software.

Another series concerns RPMI8226. The series can be described thus: Cell strain inhibition activity (Promega single solution cell proliferation test kit), RPMI8226. The class given is cell-based. Conditions: Homo sapiens, RPMI-8226; RPMI8226 cells, 24 h incubation with drug; read-out: IC50 concentration (nM) of the drugs to cytotoxicity, RPMI8226. How it is done:
as §1, §2, §3, §4

Series [2] relates to CD138+ cells selected from the patients with multiple myeloma. Kind of series: Primary cytotoxicity, CD138+ cells from patients with multiple myeloma. In kind it is cell-based. Conditions: Homo sapiens. How it is done:
(§5) In the present invention, blood cells from patients with multiple myeloma and blood cells from healthy volunteers are used to test the toxicity of candidate compounds. The test solution is a single solution cell proliferation test kit from Promega company. The cells used are CD138+ cells selected from the patients with multiple myeloma and monocytes from the blood of the healthy volunteers. The experimental system is 110 μL, containing 90 μL of cell suspension, 10 μL of test solution, and 10 μL of drug (inhibitor). The final concentration is 4.54×10^−8 M 1.77×10^−9 M, the last concentration is 0 M, the actual preparation concentration is 5×10^−7 M-1.95×10^−8 M, and the last concentration is 0 M. The specific experiment process is as follows:
(§6) After the cells are counted separately, dilution and preparation are performed so that the number of CD138+ cells is 1×10^4 cells/well, and the number of monocytes is 1×10^4 cells/well.
as §3, §4

The nature of series [3]: Primary cytotoxicity, monocytes from healthy volunteers. The class given is cell-based. The following applies: human, primary blood monocytes from a healthy volunteer, 24 h incubation with drug. How it is done:
as §5, §6, §3, §4

The mark [4] stands for this setting: Patient 1, 24 h incubation with drug, read-out: IC50 concentration (nM) of the drugs to cytotoxicity, Patient 1.
Where [5] appears, read: Patient 2, 24 h incubation with drug, read-out: IC50 concentration (nM) of the drugs to cytotoxicity, Patient 2.
Where [6] appears, read: Healthy volunteer 3 (first line, r4), read-out: IC50 concentration (nM) of the drugs to cytotoxicity, Healthy volunteer 3.
[7] abbreviates: Healthy volunteer 3 (second line, r5), read-out: IC50 concentration (nM) of the drugs to cytotoxicity, Healthy volunteer 3 (second line).

Regarding `COC[C@H](NC(=O)c1cc(C)on1)C(=O)N[C@H](CSC)C(=O)N[C@@H](CC(C)C)C(=O)[C@@]1(C)CO1` [Compound 31, N-5-methylisoxazolyl-3-formyl-O-methyl-L-seryl-S-methyl-L-cysteinyl-L-leucyl-methyloxirane], the melting point fell in the range of 70.2 to 72.7 °C.

For `COC[C@H](NC(=O)c1cnccn1)C(=O)N[C@H](CSC)C(=O)N[C@@H](CC(C)C)C(=O)[C@@]1(C)CO1` [Compound 32, N-pyrazinyl-2-formyl-O-methyl-L-seryl-S-methyl-L-cysteinyl-L-leucyl-methyloxirane], the melting point was in the range of 50 to 51 °C. For the same compound, the IC50 in the series on U266B1 stood at 13700 nM.

In turn, `COC[C@H](NC(=O)c1cc(Cl)ccc1Cl)C(=O)N[C@H](CSC)C(=O)N[C@@H](Cc1ccccc1)C(=O)[C@@]1(C)CO1` [Compound 33, N-2,5-dichlorophenyl-2-formyl-O-methyl-L-seryl-S-methyl-L-cysteinyl-L-phenylalanyl-methyloxirane] gave a melting point of 50.7 to 52.3 °C.

For the compound `COC[C@H](NC(=O)c1cnccn1)C(=O)N[C@H](CSC)C(=O)N[C@@H](Cc1ccccc1)C(=O)[C@@]1(C)CO1` [Compound 35, N-pyrazinyl-2-formyl-O-methyl-L-seryl-S-methyl-L-cysteinyl-L-phenylalanyl-methyloxirane], the melting point was 46.1 to 47.6 °C.

`COC[C@H](NC(=O)[C@@H](CSC)NC(=O)c1cc(Cl)ccc1Cl)C(=O)N[C@@H](CC(C)C)C(=O)[C@@]1(C)CO1` [Compound 36, N-2,5-dichlorophenyl-2-formyl-S-methyl-L-cysteinyl-O-methyl-L-seryl-L-leucyl-methyloxirane] displayed a melting point of 59.8 to 60.3 °C.

`COC[C@H](NC(=O)[C@@H](CSC)NC(=O)c1cc(C)on1)C(=O)N[C@@H](CC(C)C)C(=O)[C@@]1(C)CO1` [Compound 37, N-5-methylisoxazolyl-3-formyl-S-methyl-L-cysteinyl-O-methyl-L-seryl-L-leucyl-methyloxirane] registered a melting point of 49.5 to 51.8 °C.

`COC[C@H](NC(=O)[C@@H](CSC)NC(=O)c1cnccn1)C(=O)N[C@@H](CC(C)C)C(=O)[C@@]1(C)CO1` [Compound 38, N-pyrazinyl-2-formyl-S-methyl-L-cysteinyl-O-methyl-L-seryl-L-leucyl-methyloxirane] came in with a melting point of 59.6 to 61.2 °C. In series [1], this compound gave an IC50 of more than 2000 nM.

`COC[C@H](NC(=O)[C@@H](CSC)NC(=O)c1cc(Cl)ccc1Cl)C(=O)N[C@@H](Cc1ccccc1)C(=O)[C@@]1(C)CO1` [Compound 39, N-2,5-dichlorophenyl-2-formyl-S-methyl-L-cysteinyl-O-methyl-L-seryl-L-phenylalanyl-methyloxirane] had a melting point of 51.2 to 52.7 °C.

For the compound `COC[C@H](NC(=O)[C@@H](CSC)NC(=O)c1cnccn1)C(=O)N[C@@H](Cc1ccccc1)C(=O)[C@@]1(C)CO1` [Compound 41, N-pyrazinyl-2-formyl-S-methyl-L-cysteinyl-O-methyl-L-seryl-L-phenylalanyl-methyloxirane], the melting point fell in the range of 49.7 to 51.2 °C. In addition, in the series on RPMI8226, the IC50 is 55.3 nM. In addition, the IC50 with U266B1 was found to be 160 nM.

The compound `CSC[C@@H](NC(=O)c1cc(Cl)ccc1Cl)C(=O)N[C@H](CSC)C(=O)N[C@@H](CC(C)C)C(=O)[C@@]1(C)CO1` [Compound 42, N-2,5-dichlorophenyl-2-formyl-S-methyl-L-cysteinyl-S-methyl-L-cysteinyl-L-leucyl-methyloxirane] showed a melting point of 163.1 to 164.5 °C.

The compound `CSC[C@@H](NC(=O)c1cnc(C)s1)C(=O)N[C@H](CSC)C(=O)N[C@@H](CC(C)C)C(=O)[C@@]1(C)CO1` [Compound 45, N-2-methylthiazolyl-5-formyl-S-methyl-L-cysteinyl-S-methyl-L-cysteinyl-L-leucyl-methyloxirane] returned a melting point of 150 to 151 °C.

`CSC[C@@H](NC(=O)c1cc(Cl)ccc1Cl)C(=O)N[C@H](CSC)C(=O)N[C@@H](Cc1ccccc1)C(=O)[C@@]1(C)CO1` [Compound 46, N-2,5-dichlorophenyl-2-formyl-S-methyl-L-cysteinyl-S-methyl-L-cysteinyl-L-phenylalanyl-methyloxirane] gave a melting point of 150 to 151 °C.

Take `CSC[C@@H](NC(=O)c1cc(C)on1)C(=O)N[C@H](CSC)C(=O)N[C@@H](Cc1ccccc1)C(=O)[C@@]1(C)CO1` [Compound 47, N-5-methylisoxazolyl-3-formyl-S-methyl-L-cysteinyl-S-methyl-L-cysteinyl-L-phenylalanyl-methyloxirane]: the melting point lay in the range of 149 to 150 °C.

Consider `CSC[C@@H](NC(=O)c1cnccn1)C(=O)N[C@H](CSC)C(=O)N[C@@H](Cc1ccccc1)C(=O)[C@@]1(C)CO1` [Compound 48, N-pyrazinyl-2-formyl-S-methyl-L-cysteinyl-S-methyl-L-cysteinyl-L-phenylalanyl-methyloxirane], for which the IC50 in series [1] is more than 2000 nM.

For the compound `CSC[C@@H](NC(=O)c1cnc(C)s1)C(=O)N[C@H](CSC)C(=O)N[C@@H](Cc1ccccc1)C(=O)[C@@]1(C)CO1` [Compound 49, N-2-methylthiazolyl-5-formyl-S-methyl-L-cysteinyl-S-methyl-L-cysteinyl-L-phenylalanyl-methyloxirane], the melting point fell in the range of 73 to 74 °C.

Turning to `COC[C@H](NC(=O)c1cc(C)on1)C(=O)NCC(=O)N[C@@H](CC(C)C)C(=O)[C@@]1(C)CO1` [Compound 50, N-5-methylisoxazolyl-3-formyl-O-methyl-L-seryl-glycyl-L-leucyl-methyloxirane], the melting point was in the range of 47.7 to 49.1 °C. The IC50 in series [2] (setting [4]) came out at 10 nM. The IC50 in series [2] (setting [5]) stood at 11 nM. Further, the IC50 at 24 h in series [3] (setting [6]) was more than 2000 nM. The IC50 at 24 h in series [3] (setting [7]) is more than 2000 nM.

Turning to `COC[C@H](NC(=O)c1cc(C)on1)C(=O)NCC(=O)N[C@@H](Cc1ccccc1)C(=O)[C@@]1(C)CO1` [Compound 51, N-5-methylisoxazolyl-3-formyl-O-methyl-L-seryl-glycyl-L-phenylalanyl-methyloxirane], the melting point lay in the range of 54 to 55 °C. The IC50 in series [2] (setting [4]) is 36 nM. In series [2] (setting [5]), the IC50 came out at 52.6 nM.

As to `COC[C@H](NC(=O)CNC(=O)c1cc(C)on1)C(=O)N[C@@H](CC(C)C)C(=O)[C@@]1(C)CO1` [Compound 52, N-5-methylisoxazolyl-3-formyl-glycyl-O-methyl-L-seryl-L-leucyl-methyloxirane], the IC50 in the series with RPMI8226 was more than 100 nM.

Compound `CSC[C@@H](NC(=O)c1cc(C)on1)C(=O)NCC(=O)N[C@@H](CC(C)C)C(=O)[C@@]1(C)CO1` [Compound 54, N-5-methylisoxazolyl-3-formyl-S-methyl-L-cysteinyl-glycyl-L-leucyl-methyloxirane] registered a melting point of 58.4 to 59.8 °C.

Turning to `CSC[C@@H](NC(=O)c1cnc(C)s1)C(=O)NCC(=O)N[C@@H](CC(C)C)C(=O)[C@@]1(C)CO1` [Compound 56, N-2-methylthiazolyl-5-formyl-S-methyl-L-cysteinyl-glycyl-L-leucyl-methyloxirane], in the series on RPMI8226, the IC50 is more than 100 nM.

As for `COC[C@H](NC(=O)c1cnc(C)s1)C(=O)N[C@@H](COC)C(=O)N[C@@H](Cc1ccccc1)C(=O)[C@@]1(C)CO1` [Oprozomib, reference compound], the IC50 in series [2] (setting [4]) was determined as 53 nM; in series [2] (setting [5]), 70.9 nM. The IC50 at 24 h in series [3] (setting [6]) was determined as 598 nM; in series [3] (setting [7]), 807 nM.
